Legend:
T2 cells = assay: 51Cr-release cytotoxicity assay, peptide-pulsed T2 cells; assay type: cell-based; details: short peptides added immediately before the assay, long peptides loaded overnight
Method: Assessment of the cytotoxic capability of the generated T-cell lines was evaluated using a conventional chromium release assay as described. Briefly, target tumor cell lines were labeled with 100 μCi ^51Cr (Perkin Elmer, Skovlunde, Denmark) in 100 μl RPMI 1640 (Gibco) supplied with 10% FCS (Gibco) for one hour at 37° C. After washing of target cells, they were incubated with effector cells at different effector:target (E:T) ratios for four hours in the incubator. Subsequently, the amount of radioactivity in the supernatant was measured using a gamma cell counter (Perkin Elmer Wallac Wizard 1470 Automatic gamma counter).

CD4+ T cells in PBMC = assay: Cytokine ELISPOT (IFNγ, TNFα, IL-10, IL-17A) with long TDO peptides; assay type: cell-based, human; details: for Peptide-specific CD4 T-cell responses: ELISPOT, cancer patients and healthy donors; for IFNγ producing CD4+ T cells, cancer patients vs healthy donors: IFNγ ELISPOT; for IL-10 production in response to peptide stimulation: IL-10 ELISPOT; for IL-17 production in response to peptide stimulation: IL-17 ELISPOT; for cells producing TNFα in response to peptide, cancer patients vs healthy donors: TNFα ELISPOT
[1] = test system: peripheral blood mononuclear cells (PBMC); assay: IFNγ ELISPOT assay with HLA-A2 restricted TDO peptides; assay type: cell-based, human; details: for TDO responses shown by ELISPOT vs control peptide, DFR method: 3*10^5 cells/well, control peptide HIVpol463-476, examples; for IFNγ producing T-cell in response to the peptide: PBMC from six cancer patients, after one round of in vitro stimulation; for ex vivo IFNγ ELISPOT response: directly ex vivo, PBMC from different cancer patients, 9*10^5 cells/well
[2] = test system: TDO-specific CD8+ T cells; assay: Tetramer staining (flow cytometry) of TDO-specific CD8+ T cells; assay type: cell-based, human; details: PBMC from a cancer patient repeatedly stimulated with autologous DC loaded with the peptide (5- or 4-times)
Method: DC were generated by adherence of PBMCs to the plastic surface of a well for one hour in RPMI 1640 (Gibco) before removal of non-adherent cells. The adherent cells were treated with 1000 U/ml GM-CSF (PeproTech, London, UK) and 250 U/ml IL-4 (Peprotech) in X-vivo (Lonza, Copenhagen, Denmark) supplied with 5% human AB serum (Sigma-Aldrich) and placed in a 37° C., 5% CO2 and humidified environment. On day six, maturation cocktail consisting of 1000 U/ml of each TNFα, IL-1P and IL-6 and 1 μg/ml PGE2 (Peprotech) was added to the cells. On day eight, mature DCs were harvested, loaded with 100 μM TDO peptide in X-vivo 15 (Lonza) for four hours in the incubator. After washing, peptide-loaded DCs were mixed with autologous PBLs in X-vivo 15 (Lonza) supplied with 5% human AB serum (Sigma-Aldrich). […] Cultures were stimulated this way twice seven days apart. Further stimulations were performed using autologous, irradiated (25Gy) PBLs loaded with 100 μM TDO peptide. The day after stimulation with PBLs the cultures were supplied with IL-2 (Proleukin; Novartis, Copenhagen, Denmark) to a final concentration of 40 U/ml. Peptide loaded MHC tetramers were […] with 2.5 μl of each phycoerytrhin (PE). […] The stainings were performed in 50 μl PBS (Lonza) supplied with 2% FCS (Gibco) for 15 minutes in the incubator. […]

HLA-A2 = molecular target: T1, HLA-A2 (Homo sapiens, UniProt P04439, D140Y/D185E/D98H/E176V/E277Q/G131W/G231S/I119V/I121R/I166T/I218V/N151K/N90K/P208A/P217A/Q86G/Q94H/R138H/R169H); details: positive control peptides, well described; cited from earlier work
T1 construct: made in house; host or cells: E. coli

| Sequence | lysis of T2 cells pulsed with the peptide by TDO123-132 specific cells (T2 cells) | Peptide-specific CD4 T-cell responses (CD4+ T cells in PBMC) | IFNγ producing CD4+ T cells, cancer patients vs healthy donors (CD4+ T cells in PBMC) | IL-10 production in response to peptide stimulation (CD4+ T cells in PBMC) | IL-17 production in response to peptide stimulation (CD4+ T cells in PBMC) | cells producing TNFα in response to peptide, cancer patients vs healthy donors (CD4+ T cells in PBMC) | TDO responses shown by ELISPOT vs control peptide, DFR method [1] | IFNγ producing T-cell in response to the peptide [1] | ex vivo IFNγ ELISPOT response [1] | frequency of TDO-specific CD8+ T cells by two color tetramer staining [2] | affinity towards HLA-A2 (HLA-A2) |
| --- | --- | --- | --- | --- | --- | --- | --- | --- | --- | --- | --- |
| VSVILKLLVQQFSILETMTA (Peptide fragment of human TDO) [TDO118-137, long (20 amino acids) peptide comprising TDO123-132] | lysed | present in both cancer patients and healthy donors | no difference | restricted to cancer patients | restricted to cancer patients | more frequent in healthy donors |  |  |  |  |  |
| RFQVPFQLLTSLMDIDSLMT (Peptide fragment of human TDO) [TDO303-322, long (20 amino acids) peptide comprising TDO309-317] | not | present in both cancer patients and healthy donors | no difference | restricted to cancer patients | restricted to cancer patients | more frequent in healthy donors |  |  |  |  |  |
| TLLELVEAWL (Peptide fragment of human TDO) [TDO200-208, Polypeptide fragment of human TDO] |  |  |  |  |  |  | statistically significant | presence of IFNγ producing T-cell | detectable directly ex vivo |  |  |
| DLFNLSTYL (Peptide fragment of human TDO) [TDO364-372, Polypeptide fragment of human TDO] |  |  |  |  |  |  | statistically significant | presence of IFNγ producing T-cell |  |  |  |
| QLLTSLMDI (Peptide fragment of human TDO) [TDO309-317, Polypeptide fragment of human TDO] | not |  |  |  |  |  | statistically significant | presence of IFNγ producing T-cell | detectable directly ex vivo | dramatically increased |  |
| KLLVQQFSIL (Peptide fragment of human TDO) [TDO123-132, Polypeptide fragment of human TDO] | lysed |  |  |  |  |  | statistically significant | presence of IFNγ producing T-cell | detectable directly ex vivo | dramatically increased |  |
| ILKEPVHGV [HIVpol468-476] |  |  |  |  |  |  |  |  |  |  | high affinity |
